# Assay results as given in ChEMBL document CHEMBL3616452 (Eur J Med Chem, 2015).
# Calls of active or inactive are those of the source. The rule behind the calls is not given here.
# Assays:
# [1] = Antiviral activity against Influenza A virus (A/WSN/1933(H1N1)) assessed as virus-mediated cytopathic effect in MDCK cells after 48 to 72 hrs; assay type: functional, cell-based
# [2] = target: Nucleoprotein (Influenza A virus (strain A/Wilson-Smith/1933 H1N1), UniProt P15682); experiment: Binding affinity to Influenza A virus (A/WSN/1933(H1N1)) nucleoprotein transfected in 293T cells assessed as inhibition of RNA dependent RNA polymerase activity; assay type: cell-based
# [3] = tested on: MDCK; experiment: Inhibition of nucleoprotein synthesis in Influenza A virus (A/WSN/1933(H1N1)) infected in MDCK cells at 1.0 uM dosed 0.5 hrs post infection by fluorescence analysis; assay type: functional, organism-based
# [4] = tested on: MDCK; experiment: Inhibition of nucleoprotein synthesis in Influenza A virus (A/WSN/1933(H1N1)) infected in MDCK cells at 0.3 uM dosed 0.5 hrs post infection by fluorescence analysis; assay type: functional, organism-based
# [5] = tested on: MDCK; experiment: Inhibition of nucleoprotein synthesis in Influenza A virus (A/WSN/1933(H1N1)) infected in MDCK cells at 0.3 and 1 uM dosed > 0.5 hrs post infection by fluorescence analysis; assay type: functional, organism-based
# [6] = tested on: MDCK; experiment: Antiviral activity against wild-type Influenza A virus (A/WSN/1933(H1N1)) assessed as virus-mediated cytopathic effect in MDCK cells at 0.3 uM; assay type: functional, cell-based
# [7] = tested on: MDCK; experiment: Inhibition of nucleoprotein synthesis in Influenza A virus (A/WSN/1933(H1N1)) infected in MDCK cells by fluorescence analysis; assay type: functional, cell-based
# [8] = tested on: MDCK; experiment: Inhibition of nucleoprotein synthesis in Influenza A virus (A/WSN/1933(H1N1)) infected in MDCK cells at 15.0 uM by immunofluorescence assay; assay type: functional, cell-based
# [9] = Antiviral activity against wild-type Influenza A virus (A/WSN/1933(H1N1)) assessed as virus-mediated cytopathic effect in MDCK cells; assay type: functional, cell-based
# [10] = tested on: MDCK; experiment: Inhibition of nucleoprotein synthesis in Influenza A virus (A/WSN/1933(H1N1)) infected in MDCK cells at 10.0 uM dosed post-infection by fluorescence analysis; assay type: functional, organism-based
# [11] = tested on: MDCK; experiment: Inhibition of nucleoprotein synthesis in Influenza A virus (A/WSN/1933(H1N1)) infected in MDCK cells at 3.0 uM by immunofluorescence assay; assay type: functional, cell-based
# Nucleoprotein, sequence (P15682 whole entry): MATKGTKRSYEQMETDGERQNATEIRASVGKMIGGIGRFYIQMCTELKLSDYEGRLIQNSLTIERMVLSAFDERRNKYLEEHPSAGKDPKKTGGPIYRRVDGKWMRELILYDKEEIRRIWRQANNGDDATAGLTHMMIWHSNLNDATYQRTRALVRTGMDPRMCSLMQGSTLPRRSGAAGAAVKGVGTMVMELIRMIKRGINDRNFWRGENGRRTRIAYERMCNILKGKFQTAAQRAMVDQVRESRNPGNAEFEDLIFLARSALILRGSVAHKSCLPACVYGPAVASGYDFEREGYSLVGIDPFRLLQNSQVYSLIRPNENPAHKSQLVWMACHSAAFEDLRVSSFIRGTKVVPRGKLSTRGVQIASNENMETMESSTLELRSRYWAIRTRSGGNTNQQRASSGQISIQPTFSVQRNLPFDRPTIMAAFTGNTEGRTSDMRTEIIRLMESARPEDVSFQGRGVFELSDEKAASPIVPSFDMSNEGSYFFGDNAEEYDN
Compound,EC50 [1],other results
Cn1c(=O)c2c(-c3ccccc3)n3c(c2n(C)c1=O)C(c1ccccc1Cl)OCC3 (centres undefined),> 50 µM,
Cn1c(=O)c2c(-c3ccccc3)n3c(c2n(C)c1=O)C(c1ccccc1F)OCC3 (centres undefined),> 50 µM,
COc1ccc(C2OCC(C)(C)n3c(-c4ccccc4)c4c(=O)n(C)c(=O)n(C)c4c32)cc1 (centres undefined),> 50 µM,
Cn1c(=O)c2c(-c3ccccc3)n3c(c2n(C)c1=O)C(C1CCCCC1)OCC3 (centres undefined),> 50 µM,
Cn1c(=O)c2c(-c3ccccc3)n3c(c2n(C)c1=O)C(c1ccccc1Cl)OCC3(C)C (centres undefined),8 µM,
Cc1onc(-c2ccccc2Cl)c1C(=O)N1CCN(c2ccc([N+](=O)[O-])cc2)CC1,,IC50 [2]: 0.23 µM; inhibition [3]: Active; inhibition [4]: Active; inhibition [5]: inactive; Activity [6]: Active; inhibition [7]: Active
Cn1c(=O)c2c(-c3ccccc3)n3c(c2n(C)c1=O)C(c1ccco1)OCC3 (centres undefined),> 50 µM,
Cn1c(=O)c2c(-c3ccccc3)n3c(c2n(C)c1=O)C(C1CCCC1)OCC3 (centres undefined),> 50 µM,
Cn1c(=O)c2c(-c3ccccc3)n3c(c2n(C)c1=O)C(c1ccccc1F)OCC3(C)C (centres undefined),1 µM,IC50 [2]: 4.9 µM; inhibition [8]: Active; EC50 [9]: 2.3 µM; inhibition [10]: Active; inhibition [11]: inactive; inhibition ([7]; TDE = time-dependent effect): tde
Cn1c(=O)c2c(-c3ccccc3)n3c(c2n(C)c1=O)C(c1ccccc1)OCC3(C)C (centres undefined),5.4 µM,
Cn1c(=O)c2c(-c3ccccc3)n3c(c2n(C)c1=O)C(c1ccccc1)OCC3 (centres undefined),> 50 µM,
Cn1c(=O)c2c(-c3ccccc3)n3c(c2n(C)c1=O)C(c1ccc(Br)o1)OCC3 (centres undefined),> 50 µM,
CCCn1c(=O)c2c(-c3ccccc3)n3c(c2n(CCC)c1=O)C(C1CCCCC1)OCC3 (centres undefined),> 50 µM,
Cn1c(=O)c2c(-c3ccccc3)n3c(c2n(C)c1=O)C(C1CCCCC1)OCC3(C)C (centres undefined),> 50 µM,
Cn1c(=O)c2c(-c3ccccc3)n3c(c2n(C)c1=O)C(c1cccs1)OCC3(C)C (centres undefined),6.8 µM,
CCCC1OCCn2c(-c3ccccc3)c3c(=O)n(C)c(=O)n(C)c3c21 (centres undefined),> 50 µM,
Cn1c(=O)c2c(-c3ccccc3)n3c(c2n(C)c1=O)C(c1ccc(C(F)(F)F)cc1)OCC3(C)C (centres undefined),> 50 µM,
Cn1c(=O)c2c(-c3ccccc3)n3c(c2n(C)c1=O)C(c1cccs1)OCC3 (centres undefined),> 50 µM,
